Test results published in a melting point compilation (Tetko et al.; mined from patent text by program, amines drawn as free bases though some values may be those of a salt).

`Cc1ccc(-c2nc(-c3ccc(C(=O)NCCCBr)cc3)cs2)cc1` showed a melting point of 175 to 177 °C. Molecule `CN(C)CCOc1ccc(Cl)c(C(=O)O)c1Cl` has a melting point of 234 to 236 °C. Molecule `c1ccc(N2CCN(c3nn(-c4ccccc4)c4ccccc34)CC2)cc1` has a melting point of 129 to 130 °C. Work on `Cc1nc(-c2cc3[nH]c(=O)c(=O)[nH]c3cc2[N+](=O)[O-])c[nH]1` yielded a melting point greater than 300 °C. `CCOC(=O)Nc1csc2cc(OCc3ccccc3)ccc12` showed a melting point of 129 to 130 °C. `CC(C)(C)c1cc(C(=O)c2ccccc2)cc(CN2CCC(O)CC2)c1O` showed a melting point of 156 to 157 °C. `COc1cc(OC)c2c(c1)c(C(=O)C(=O)NC1=CC(=O)OC1)cn2Cc1ccc(Cl)cc1` showed a melting point of 280 to 282 °C. `COC(=O)N(CO)c1ccc(OCc2nc3ccccc3s2)cc1C` showed a melting point of 121 to 123 °C. Molecule `COCCONC(=O)c1nc(-c2ccc(Cl)c(OC)c2F)cc(N)c1Cl` has a melting point of 155 to 157 °C. With `CCCCCCCCCCc1ccc(CNc2ccc(C(=O)O)cc2)cc1` the melting point was 135 to 136 °C. For `COc1ccc2[nH]c(SCc3ncc(C)c(N4CCOCC4)c3Cl)nc2c1`, the melting point was 162 to 164 °C. For `CC1(C(O)(Cc2ccccc2Cl)Cn2cncn2)CCCC1` (centres undefined), the melting point was 110 °C. `COC(=O)CSCc1cnc(OC)c([N+](=O)[O-])c1` gave a melting point of 57 to 60 °C. `CC(=O)c1ccc2c(c1)C(c1ncccc1C)CC(C)(C)O2` (centres undefined) gave a melting point of 87 to 88 °C. With `O=C(c1ccc(O)cc1)c1cc(Cl)cc(Cl)c1` the melting point was 183 °C. For `O=c1c(O)c(-c2nnc(Cc3ccc(F)cc3)o2)[nH]c2ccccc12`, the melting point was greater than 300 °C. For `CCCCN(CCCC)c1ccc2c(c1)O/C(=C1/Oc3cc(N(CCCC)CCCC)ccc3C1=O)C2=O`, the melting point was 216 °C. For `NCCCCCCCCOc1cccc2ccccc12`, the melting point was 90.5 to 92 °C. `COC(=O)c1ccc2c(c1C(=O)OC)C(=O)OC2=O` gave a melting point of 178 to 180 °C. In the case of `CCOC(=O)C(O)(CC(=O)c1ccc(-n2ccnc2)cc1)C(=O)OCC`, the melting point is reported as 155 to 156 °C. Work on `FC(F)(F)c1cccc2c1[nH]c1c2ccc2cc[nH]c21` yielded a melting point greater than 250 °C. For `O=S(=O)(Nc1cccc(/C=C/c2ccccc2)c1)C(F)(F)F`, the melting point was 62 to 64 °C. `CCCc1c(OCCCOc2ccc(C#N)cc2Br)ccc(C(C)=O)c1O` showed a melting point of 88 to 89 °C. In the case of `COc1cc(C=O)ccc1OCc1nc(-c2cccnc2)oc1C`, the melting point is reported as 164 to 165 °C. `OC(CNC1CC1)c1cccc(F)c1` (centres undefined) gave a melting point of 57.8 to 60 °C. `CCOC(=O)C1=CNC(COCCN)=C(C(=O)OC)C1c1cccc(Cl)c1Cl` (centres undefined) showed a melting point of 131 to 132 °C. In the case of `Nc1noc(-c2nc(Cl)c(N)nc2N)n1`, the melting point is reported as 278 °C. Molecule `O=Cc1c[nH]c2c1ccc1c3cc([N+](=O)[O-])ccc3[nH]c12` has a melting point greater than 250 °C. `CN(C)C=C1Nn2c(nc(-c3ccc([N+](=O)[O-])o3)c2N)S1` showed a melting point of 304 °C. For `Nc1cccc(OCCN2CCc3ccccc3C2)c1N`, the melting point was 76 to 77 °C. In the case of `CCNc1nc2ccc(CCc3cn4ccc(C)cc4n3)cc2o1`, the melting point is reported as 156 to 158 °C. In the case of `O=C(Nc1ccccc1)NC1CCCCC1`, the melting point is reported as 164 °C. In the case of `N#CC(N)(N)c1cccnc1`, the melting point is reported as 158 °C. For `N[C@@H](Cc1ccccc1)C(O)(c1ccccc1)c1ccccc1`, the melting point was 141 to 142 °C. In the case of `CCOC(=O)C1CSC(COc2ccccc2OC)N1` (centres undefined), the melting point is reported as 50 °C. Work on `Nc1c(F)c(N2CCC(n3ccnn3)CC2)c(F)c2c1c(=O)c(C(=O)O)cn2C1CC1` yielded a melting point of 274 to 276 °C. `CCOC(=O)COc1ccc(C=O)cc1NC(=O)c1ccc(OCCCCc2ccccc2)cc1` gave a melting point of 109 to 110 °C. `Nc1cnc2cc(Cl)ccc2c1Nc1ccc(F)cc1` showed a melting point of 198 to 200 °C. For `CCOC(=O)c1c(C(=O)OCC)c(-c2ccc3c(c2)OCO3)c2c3c(ccc2c1O)OCO3`, the melting point was 192 to 194 °C. In the case of `CCOC(=O)Nc1ccc(CCBr)c(Cl)c1`, the melting point is reported as 112 to 114 °C. For `CC(C)(C)NC(=O)[C@@H]1CCCN1C(=O)[C@@H](O)[C@@H](N)Cc1ccccc1`, the melting point was 159 to 161 °C. For `Cc1noc(C)c1-c1cn(Cc2ccccc2)c(=O)c2ccccc12`, the melting point was 139 to 141 °C. `O=c1[nH]c2ccc3c(c2[nH]c1=O)CCCN3` showed a melting point greater than 285 °C. With `Nc1nc(Cl)c(C2=NCCN2)c(Cl)n1` the melting point was 197 to 198 °C. Work on `O=C(c1cnc2ccccc2c1)N1CCC(c2ccccc2)=N1` yielded a melting point of 107 to 112 °C. With `c1cnc2scc(Nc3ccncc3)c2c1` the melting point was 200 to 204 °C. In the case of `COC(=O)Cc1ccc(C(F)(F)F)cc1[N+](=O)[O-]`, the melting point is reported as 104 to 105 °C. With `Nc1ncccc1OCc1ccccc1F` the melting point was 85 to 86 °C. For `COc1ccc(Oc2ccc(C(=O)CCC#N)cc2)cc1`, the melting point was 88 °C. Work on `COc1ccc(CNn2c(=O)ccc3cnc(S(C)(=O)=O)nc32)cc1Cl` yielded a melting point of 212 to 214 °C. Molecule `CCOP(=O)(Cc1ccc(NC(=O)/C=C/c2c(C)noc2-c2ccccc2)cc1)OCC` has a melting point of 155 to 156 °C. `CN(C)C(=O)Nc1cccc(-c2nc(=O)c3ccccc3s2)n1` gave a melting point of 230 °C. In the case of `N=C(NO)c1ccc(-c2ccc(-c3ccc(C(=N)NO)o3)cc2)o1`, the melting point is reported as greater than 300 °C. `C#CCN1CCCc2ccc(OC(=O)Nc3ccccc3Br)cc21` gave a melting point of 105 °C. In the case of `O=C1OC(=O)c2cc(OCCCOc3ccccc3)ccc21`, the melting point is reported as 96 to 98 °C. In the case of `O=c1c2ccccc2sc2c(OCc3ccccc3)ccc(Cl)c12`, the melting point is reported as 139 to 140 °C. Molecule `COc1ccc(C(=O)NN=Cc2ccc3ccccc3n2)cc1` has a melting point of 217 to 218 °C. `CCOC(=O)c1ccc(-c2cc3c(NCCCN4CCOCC4)ncnc3[nH]2)cc1` gave a melting point of 231 to 234 °C. With `CCCn1ncc2c(=O)[nH]c(-c3cc(C(=O)CN4CCOCC4)ccc3OCC)nc21` the melting point was 160 to 162 °C. Work on `CC(C)n1nc(-c2c(NC(C)(C)C)nc(N)nc2-c2ccccc2)ccc1=O` yielded a melting point of 202 to 204 °C. Work on `O=C(NCc1ccc(Br)cc1F)OCc1ccccc1` yielded a melting point of 82 to 84 °C. With `COc1c(OCCOc2ccc(C(C)(C)C)cc2)ccnc1C` the melting point was 84 to 87 °C. `CC(C)(C)C(=O)C(Oc1ccc(Cl)cc1)n1ncnc1S` (centres undefined) gave a melting point of 134 to 136 °C. Molecule `CC(=O)c1ccc2c(c1)CN(C(=O)C(F)(F)F)CC2` has a melting point of 80 °C. Work on `O=C(O)Cc1ccccc1Oc1ccc(C(F)(F)F)cc1[N+](=O)[O-]` yielded a melting point of 165 to 167 °C. `CCOC(=O)C(=O)NNc1ccc([N+](=O)[O-])cc1` gave a melting point of 187 to 188 °C. In the case of `CCc1nn(-c2ccc(F)cc2)c2cc(C(=O)O)ccc12`, the melting point is reported as 204 to 205 °C. `COC(=O)c1cc([N+](=O)[O-])ccc1-c1ccc([N+](=O)[O-])cc1C(=O)OC` showed a melting point of 176 to 177 °C. `COC(=O)c1cccc(-c2c(C)c(NC(=O)CC(C)(C)C)c(C)c3c2OCC3c2ccc(C(C)C)cc2)c1` (centres undefined) showed a melting point of 206 to 208 °C. Molecule `O=C(NO)[C@H]1CN(C(=O)Nc2ccccc2)CCN1S(=O)(=O)c1ccc(-c2ccc(F)cc2)s1` has a melting point of 187 to 188 °C. In the case of `CCOC(=O)O[C@H](c1ccc(S(C)(=O)=O)cc1)[C@@H](CF)NC(=O)C(Cl)Cl`, the melting point is reported as 110 to 112 °C. `COc1ccccc1N1CCN(CCCCCn2c(=O)[nH]c3cscc3c2=O)CC1` showed a melting point of 148 to 153 °C. With `COC(=O)c1ccc2nc(C)n(Cc3ccc(C=C4SC(=O)NC4=O)cc3Cl)c2n1` the melting point was greater than 300 °C. For `Cc1ccc2c(c1)Oc1ccc([N+](=O)[O-])cc1C(=O)N2C`, the melting point was 156 to 159 °C.
